The assay deals with memapsin 2 (Homo sapiens, UniProt P56817). As to the kind of experiment: Inhibition of memapsin 2 beta-secretase activity toward fluorogenic substrate FS-2. It is filed as biochemical. The note with it: memapsin 2, pH 4, 37° C., 20 minutes pre-incubation, substrate FS-2; read-out: M2Ki. As to the method: Potency of compounds were determined by measurement of their inhibition of memapsin 2 activity toward a fluorescent substrate. Kinetic inhibition experiments were performed using the procedure as described in Ermolieff, et al. (Biochemistry 39:12450-12456 (2000), the teachings of which are incorporated hereby in their entirety). Briefly, assays were performed at pH 4, 37° C., by pre-incubation of memapsin 2 enzyme with compound for 20 minutes. Activity measurements were initiated by addition of a fluorogenic substrate FS-2 (Bachem Americas, Torrance, Calif.) MCA-SEVNLDAEFK-DNP (SEQ ID NO.: 2). The substrate was derived from 10 amino acids of the human amyloid precursor protein (APP), with the Swedish variant amino acids at the beta-secretase cleavage site. The terminal amino acid was modified from arginine to lysine to facilitate derivatization with a functional group for detection by autofluorescence. The amino acid sequence of the “core” peptide of the substrate is SEVNLDAEFK (SEQ ID NO.: 3). The amino terminus was derivatized with (7-methoxycoumarin-4-yl)acetyl (MCA), and the epsilon amine of the lysine side chain of the terminal residue (K in sequence SEVNLDAEFK (SEQ ID NO.: 4)) was derivatized with 2,4-dinitrophenyl (DNP).
Sequence of memapsin 2 (P56817 46-501): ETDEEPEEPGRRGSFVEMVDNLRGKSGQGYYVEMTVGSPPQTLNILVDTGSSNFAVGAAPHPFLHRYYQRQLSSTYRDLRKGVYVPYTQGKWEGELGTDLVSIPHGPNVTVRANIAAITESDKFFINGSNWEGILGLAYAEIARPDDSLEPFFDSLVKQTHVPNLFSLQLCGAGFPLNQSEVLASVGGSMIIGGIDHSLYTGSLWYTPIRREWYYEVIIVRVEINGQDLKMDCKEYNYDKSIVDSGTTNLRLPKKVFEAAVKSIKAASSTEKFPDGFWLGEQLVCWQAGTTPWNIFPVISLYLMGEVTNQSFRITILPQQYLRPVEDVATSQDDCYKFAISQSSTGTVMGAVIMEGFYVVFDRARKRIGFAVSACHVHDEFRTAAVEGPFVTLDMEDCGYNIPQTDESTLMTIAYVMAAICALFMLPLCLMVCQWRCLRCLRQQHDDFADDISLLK

Bounds are passed on as bounds.

The results in this text go back to US8299267B2, “(3-hydroxy-4-amino-butan-2-yl) -3- (2-thiazol-2-yl-pyrrolidine-1-carbonyl) benzamide derivatives and related compounds as beta-secretase inhibitors for treating” (CoMentis, Inc., priority 2007, dated 2012).

Turning to `COc1cccc(CNC[C@@H](O)[C@H](Cc2ccccc2)NC(=O)c2cccc(C(=O)N3CCC[C@H]3c3nc(C)cs3)c2)c1` [Compound 4, N-((2S,3R)-3-hydroxy-4-(3-methoxybenzylamino)-1-phenylbutan-2-yl)-3-((S)-2-(4-methylthiazol-2-yl)pyrrolidine-1-carbonyl)benzamide], the Ki was more than 201 nM.

As to `COc1cccc(CNC[C@@H](O)[C@H](Cc2ccccc2)NC(=O)c2cccc(C(=O)N3C[C@H](OC)C[C@@H]3c3nc(C)cs3)c2)c1` [Compound 7, N-((2S,3R)-3-hydroxy-4-(3-methoxybenzylamino)-1-phenylbutan-2-yl)-3-((2R,4R)-4-methoxy-2-(4-methylthiazol-2-yl)pyrrolidine-1-carbonyl)benzamide], the Ki was more than 201 nM.

Take `COc1cccc(CNC[C@@H](O)[C@H](Cc2ccccc2)NC(=O)c2cccc(C(=O)N3CS(=O)(=O)C[C@@H]3c3nc(C)cs3)c2)c1` [Compound 13, N-((2S,3R)-3-hydroxy-4-(3-methoxybenzylamino)-1-phenylbutan-2-yl)-3-((R)-4-(4-methylthiazol-2-yl)thiazolidine-S-dioxide-3-carbonyl)benzamide]: the Ki is more than 201 nM.

Take `Cc1csc([C@H]2CCCN2C(=O)c2cccc(C(=O)N[C@@H](Cc3ccccc3)[C@H](O)CNC3CC3)c2)n1` [Compound 19, N-((2S,3R)-4-(cyclopropylamino)-3-hydroxy-1-phenylbutan-2-yl)-3-((R)-2-(4-methylthiazol-2-yl)pyrrolidine-1-carbonyl)benzamide]: the Ki was more than 201 nM.

Turning to `Cc1csc([C@H]2CCCN2C(=O)c2cc(C(=O)N[C@@H](Cc3ccccc3)[C@H](O)CNCc3cncc(C(C)(C)F)c3)cc(N(C)C)c2)n1` [Compound 36, 3-(dimethylamino)-N-((2S,3R)-4-((5-(2-fluoropropan-2-yl)pyridin-3-yl)methylamino)-3-hydroxy-1-phenylbutan-2-yl)-5-((R)-2-(4-methylthiazol-2-yl)pyrrolidine-1-carbonyl)benzamide], the Ki was less than 100 nM.

Take `COc1cccc([C@H](C)NC[C@@H](O)[C@H](Cc2ccccc2)NC(=O)c2cc(C(=O)N3CCC[C@@H]3c3nc(C)cs3)cc(N(C)C)c2)c1` [Compound 53, 3-(dimethylamino)-N-((2S,3R)-3-hydroxy-4-((S)-1-(3-methoxyphenyl)ethylamino)-1-phenylbutan-2-yl)-5-((R)-2-(4-methylthiazol-2-yl)pyrrolidine-1-carbonyl)benzamide]: the Ki fell in the range of 101 to 200 nM.

In the case of `COc1cc(C(=O)N[C@@H](Cc2ccccc2)[C@H](O)CNCc2cc(Cl)cc(Cl)c2)cc(C(=O)N2CCC[C@@H]2c2nc(C)cs2)c1` [Compound 54, N-((2S,3R)-4-(3,5-dichlorobenzylamino)-3-hydroxy-1-phenylbutan-2-yl)-3-methoxy-5-((R)-2-(4-methylthiazol-2-yl)pyrrolidine-1-carbonyl)benzamide], the Ki is less than 100 nM.

Consider `Cc1csc([C@H]2CCCN2C(=O)c2cc(C(=O)N[C@@H](Cc3ccccc3)[C@H](O)CNCc3cncc(C(C)(C)F)c3)cc(C(F)F)c2)n1` [Compound 58, 3-(difluoromethyl)-N-((2S,3R)-4-((5-(2-fluoropropan-2-yl)pyridin-3-yl)methylamino)-3-hydroxy-1-phenylbutan-2-yl)-5-((R)-2-(4-methylthiazol-2-yl)pyrrolidine-1-carbonyl)benzamide], for which the Ki is less than 100 nM.

On to `Cc1csc([C@H]2CCCN2C(=O)c2cncc(C(=O)N[C@@H](Cc3ccccc3)[C@H](O)CNCc3cc(C#N)cc(C(C)C)c3)c2)n1` [Compound 61, N-((2S,3R)-4-(3-cyano-5-isopropylbenzylamino)-3-hydroxy-1-phenylbutan-2-yl)-5-((R)-2-(4-methylthiazol-2-yl)pyrrolidine-1-carbonyl)nicotinamide], for which the Ki was less than 100 nM.

Regarding `Cc1csc([C@H]2CCCN2C(=O)c2cc(C(=O)N[C@@H](Cc3ccccc3)[C@H](O)CNCc3cncc(C(C)C)c3)cc(C(F)F)c2)n1` [Compound 62, 3-(difluoromethyl)-N-((2S,3R)-3-hydroxy-4-((5-isopropylpyridin-3-yl)methylamino)-1-phenylbutan-2-yl)-5-((R)-2-(4-methylthiazol-2-yl)pyrrolidine-1-carbonyl)benzamide], the Ki is less than 100 nM.

`COc1cccc([C@H](C)NC[C@@H](O)[C@H](Cc2ccccc2)NC(=O)c2cc(C(=O)N3CCC[C@@H]3c3nc(C)cs3)cc(C(F)F)c2)c1` [Compound 63, 3-(difluoromethyl)-N-((2S,3R)-3-hydroxy-4-((S)-1-(3-methoxyphenyl)ethylamino)-1-phenylbutan-2-yl)-5-((R)-2-(4-methylthiazol-2-yl)pyrrolidine-1-carbonyl)benzamide]: the Ki is less than 100 nM.

Take `Cc1csc(CNC[C@@H](O)[C@H](Cc2ccccc2)NC(=O)c2cccc(C(=O)N3CCC[C@@H]3c3nc(C)cs3)c2)n1` [Compound 67, N-((2S,3R)-3-hydroxy-4-((4-methylthiazol-2-yl)methylamino)-1-phenylbutan-2-yl)-3-((R)-2-(4-methylthiazol-2-yl)pyrrolidine-1-carbonyl)benzamide]: the Ki is more than 201 nM.

Turning to `Cc1coc([C@H]2CCCN2C(=O)c2cncc(C(=O)N[C@@H](Cc3ccccc3)[C@H](O)CNCc3cccc(C(F)(F)F)c3)c2)n1` [Compound 72, N-((2S,3R)-3-hydroxy-1-phenyl-4-(3-(trifluoromethyl)benzylamino)butan-2-yl)-5-((R)-2-(4-methyloxazol-2-yl)pyrrolidine-1-carbonyl)nicotinamide], the Ki was less than 100 nM.

For the compound `Cc1cc(C(=O)N2CCC[C@@H]2c2nc(C)co2)cc(C(=O)N[C@@H](Cc2ccccc2)[C@H](O)CNCc2cccc(C(F)(F)F)c2)n1` [Compound 96, N-((2S,3R)-3-hydroxy-1-phenyl-4-(3-(trifluoromethyl)benzylamino)butan-2-yl)-6-methyl-4-((R)-2-(4-methyloxazol-2-yl)pyrrolidine-1-carbonyl)picolinamide], the Ki was less than 100 nM.

Consider `Cc1cc(C(=O)N[C@@H](Cc2ccccc2)[C@H](O)CNCc2cc3ccccc3o2)cc(C(=O)N2CCC[C@@H]2c2nc(C)cs2)c1` [Compound 97, N-((2S,3R)-4-(benzofuran-2-ylmethylamino)-3-hydroxy-1-phenylbutan-2-yl)-3-methyl-5-((R)-2-(4-methylthiazol-2-yl)pyrrolidine-1-carbonyl)benzamide], for which the Ki was more than 201 nM.

With `Cc1csc([C@H]2CCCN2C(=O)c2cc(C(=O)N[C@@H](Cc3ccccc3)[C@H](O)CNCc3cccc(C(F)(F)F)c3)cc(N(C)C)n2)n1` [Compound 98, 2-(dimethylamino)-N-((2S,3R)-3-hydroxy-1-phenyl-4-(3-(trifluoromethyl)benzylamino)butan-2-yl)-6-((R)-2-(4-methylthiazol-2-yl)pyrrolidine-1-carbonyl)isonicotinamide], the Ki is less than 100 nM.

For the compound `Cc1csc([C@H]2CCCN2C(=O)c2cccc(C(=O)N[C@@H](Cc3ccccc3)[C@H](O)CNCc3cc(C(C)C)no3)c2)n1` [Compound 99, N-((2S,3R)-3-hydroxy-4-((3-isopropylisoxazol-5-yl)methylamino)-1-phenylbutan-2-yl)-3-((R)-2-(4-methylthiazol-2-yl)pyrrolidine-1-carbonyl)benzamide], the Ki is less than 100 nM.
